Each compound was assayed against T1, full-length SHP2-E76K oncogenic mutant (Homo sapiens, UniProt Q06124, E76K) (assay: DiFMUP fluorescence phosphatase inhibition assay, SHP2-E76K). Settings: DiFMUP at Km (20 μM), 10-point dose–response, pH 6.0.
T1 construct: Recombinant human full-length SHP2 (1–594) WT and E76K mutants; made in house
T1 sequence (Q06124 1-593 E76K): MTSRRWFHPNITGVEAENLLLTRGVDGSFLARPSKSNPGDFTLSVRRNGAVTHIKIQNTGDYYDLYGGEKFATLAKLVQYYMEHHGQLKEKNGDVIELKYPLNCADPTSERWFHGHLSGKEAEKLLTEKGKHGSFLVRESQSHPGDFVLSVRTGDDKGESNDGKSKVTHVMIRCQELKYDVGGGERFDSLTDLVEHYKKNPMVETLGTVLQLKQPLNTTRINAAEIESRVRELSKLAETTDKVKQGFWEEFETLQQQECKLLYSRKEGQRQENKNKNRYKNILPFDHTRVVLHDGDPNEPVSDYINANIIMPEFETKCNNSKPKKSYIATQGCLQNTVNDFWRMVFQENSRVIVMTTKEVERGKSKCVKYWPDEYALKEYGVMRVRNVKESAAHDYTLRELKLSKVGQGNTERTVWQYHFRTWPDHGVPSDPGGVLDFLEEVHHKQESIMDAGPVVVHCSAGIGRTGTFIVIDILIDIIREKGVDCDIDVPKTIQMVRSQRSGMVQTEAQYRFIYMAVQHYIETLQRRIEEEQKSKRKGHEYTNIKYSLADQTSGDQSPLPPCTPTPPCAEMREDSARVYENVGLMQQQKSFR
Assay type: biochemical
Text: To test the synthesized compounds for their potential to inhibit SHP2 activity, a fluorescence intensity-based assay using 6,8-difluoro-4-methylumbelliferyl phosphate (DiFMUP) as the substrate was adapted for three recombinant SHP2 constructs: (1) the SHP2 catalytic domain (SHP2cat; residues 248–527), (2) the full-length SHP2-E76K oncogenic mutant, and (3) the full-length SHP2 WT (SHP2-WT). The recombinant SHP2 proteins were expressed and purified as described previously ([36]). A dually phosphorylated peptide derived from the insulin receptor substrate 1 (IRS-1) served as a surrogate binding protein and was used to activate SHP2-WT ([30], [36]). […] Michaelis–Menten experiments to determine the DiFMUP Michaelis–Menten constant (Km) for each SHP2 construct were performed as described previously ([36]) and yielded the following values: SHP2-WT, Km = 60 μM; SHP2-E76K, Km = 20 μM; and SHP2cat, Km = 20 μM. Relative maximum rates (Vmax) of the DiFMUP reactions expressed as relative fluorescence units per minute (RFU/min) were as follows: SHP2-WT, Vmax = 871 RFU/min; SHP2-E76K, Vmax = 2730 RFU/min; and SHP2cat, Vmax = 2912 RFU/min. IC50 values for each compound were determined from initial rates in 10-point dose–response assays using DiFMUP at a concentration corresponding to its Km value for the respective SHP2 construct. […] Replacements for the benzothiophenone were explored using analog #10.
Recombinant human full-length SHP2 (1–594) WT and E76K mutants, as well as the SHP2cat (248–527), were expressed and purified as described before ([36], [41]). Recombinant human PTP1B (1–300) and the codon-optimized STEP (280–566) catalytic domains were cloned into PET-15b and expressed as N-His-tagged fusion proteins. For expression, transformed BL21(DE3) cells were grown and induced similar as described for SHP2. Collected cells were resuspended in lysis buffer (25 mM Tris, pH 7.5, 300 mM NaCl, 50 mM imidazole, and 10% glycerol) with 100 mg/l RNaseA and were lysed with two passages using a microfluidizer. The lysate was clarified by centrifugation at 15,000g for 50 min and applied to nickel–nitrilotriacetic acid resin. The column resin was washed, and the PTP1B or STEP protein was eluted in lysis buffer at 300 mM imidazole. The PTP1B or STEP protein was further purified by S75 size-exclusion chromatography in 50 mM Tris, pH 7.5, 50 mM NaCl. The eluted peak fractions were supplemented with tris(2-carboxyethyl)phosphine to 10 mM, concentrated by ultrafiltration, and stored at −80 °C. The purified yield of PTP1B was 33 mg/l cell culture; the yield of STEP was 16 mg/l cell culture.
SHP2 inhibitors were tested at RT in a 384-well plate format standard phosphatase fluorescence intensity assay using DiFMUP (Invitrogen/Thermo Fisher Scientific) as a substrate and a total reaction volume of 25 μl. SHP2 inhibitors or vehicle (DMSO) were spotted in triplicate into a black Greiner FLUOTRAC 200 384-well microplate (catalog no.: 781076; Greiner) for a 10-point dose–response assay using an Echo 555 Liquid Handler (Labcyte, Inc). PTP working solutions were prepared at a 0.625 nM concentration (for a final concentration of 0.5 nM) in buffer containing 50 mM Bis–Tris, pH 6.0, 50 mM NaCl, 5 mM DTT, and 0.01% Tween-20. Prior to the assay, a dually phosphorylated IRS-1 peptide (625 nM [500 nM final] ([30])) was added to full-length WT SHP2 working solutions and incubated for 20 min. DiFMUP working solutions at 5× final concentration were prepared in 50 mM Bis–Tris, pH 6.0, 50 mM NaCl, and 0.01% Tween-20. About 20 μl of PTP working solution was dispensed into the microplate and incubated with inhibitor for 20 min at RT. […] The reaction was initiated by addition of 5 μl DiFMUP working solutions. Fluorescence intensity was measured in kinetic mode (every minute for 7 or 10 min) using a Tecan Spark Multimode Microplate Reader (Tecan) with an excitation wavelength of 360 nm and an emission wavelength of 460 nm. […]

Row | SMILES | IC50 [nM]
1 | O=C1CCCC1=Cc1ccc(-c2ccc(O)c(C(=O)Nc3ccccc3)c2)o1 [SBI-3192, 2-Hydroxy-5-(5-((2-oxocyclopentylidene)methyl)furan-2-yl)-N-phenylbenzamide] | 2300
2 | N#Cc1cc(-c2ccc(/C=C3\Sc4ccccc4C3=O)o2)ccc1O [SBI-3404, (Z)-2-Hydroxy-5-(5-((3-oxobenzo[b]thiophen-2(3H)-ylidene)methyl)furan-2-yl)benzonitrile] | 4200
3 | O=C(Nc1ccccc1)c1cc(-c2ccc(/C=C3\Sc4ccccc4C3=O)o2)ccc1O [SBI-4668, (Z)-2-Hydroxy-5-(5-((3-oxobenzo[b]thiophen-2(3H)-ylidene)methyl)furan-2-yl)-N-phenylbenzamide] | 1800

Further compounds by falling IC50, results first:

Row | IC50 [nM] | SMILES
4 | 4100 | O=C1/C(=C/c2ccc(-c3ccc(O)c(-c4nn[nH]n4)c3)o2)Sc2ccccc21 [SBI-3405, (Z)-2-((5-(4-Hydroxy-3-(2H-tetrazol-5-yl)phenyl)furan-2-yl)methylene)benzo[b]thiophen-3(2H)-one]
5 | 480 | Nc1ccc(NC(=O)c2cc(-c3ccc(/C=C4\Sc5ccccc5C4=O)o3)ccc2O)cc1 [SBI-2130, (Z)-N-(4-Aminophenyl)-2-hydroxy-5-(5-((3-oxobenzo[b]thiophen-2(3H)-ylidene)methyl)furan-2-yl)benzamide]

From publication PMC8760490, “Discovery of novel furanylbenzamide inhibitors that target oncogenic tyrosine phosphatase SHP2 in leukemia cells” (The Journal of Biological Chemistry, 2021)
